Consider six compounds from DBAASP.

In brackets after ≈: the same amount, converted by molar mass.

Some test systems named below: Acinetobacter baumannii; Staphylococcus aureus; Klebsiella pneumoniae.
Common to all, as to test: ≥ marks a high value that may be exact or a test limit, other limits are often not marked, values filed in µg/mL are converted to µM
For assay [1], the system named is Klebsiella pneumoniae ATCC 700603.
The subject of assay [2] is Staphylococcus aureus ATCC 25923.
Assay [3] concerns Escherichia coli ATCC 25922.
Assay [4] concerns Pseudomonas aeruginosa ATCC 9027.
Assay [5] deals with Bacillus subtilis ATCC 23857.
Assay [6] has as its system Pseudomonas aeruginosa ATCC 27853.
Assay [7] deals with Staphylococcus epidermidis ATCC 12228.
The test system of assay [8] is Acinetobacter baumannii ATCC 19606.
In assay [9] the test system is Enterococcus faecalis ATCC 29212.
Assay [10] has as its system Klebsiella pneumoniae ATCC 13883.

As a reminder, the MIC is the least concentration at which growth counts as inhibited. A low value points to inhibition by little substance. For the compound `CC[C@H](C)[C@H](NC(=O)[C@H](CC(C)C)NC(=O)[C@H](CCC(N)=O)NC(=O)[C@@H](NC(=O)[C@H](CC(C)C)NC(=O)[C@H](CCCN=C(N)N)NC(=O)[C@H](CCCN=C(N)N)NC(=O)[C@@H](NC(=O)[C@H](C)NC(=O)[C@H](CCCCN)NC(=O)[C@H](CCCN=C(N)N)NC(=O)[C@H](CC(C)C)NC(=O)[C@@H](NC(=O)[C@H](C)NC(=O)[C@@H](NC(=O)[C@H](C)N)[C@@H](C)O)[C@@H](C)CC)[C@@H](C)O)C(C)C)C(=O)O` [ATAILRKATRRLVQLI], the MIC in assay [1] was more than 25 µM; in assay [2] it was more than 25 µM; in assay [3], more than 25 µM; in the assay with Acinetobacter baumannii, 25 µM (≈ 45.6 µg/mL); in assay [4] it was more than 25 µM.
`CC[C@H](C)[C@H](NC(=O)CN)C(=O)N[C@@H](CCCN=C(N)N)C(=O)N[C@@H](CCCN=C(N)N)C(=O)NCC(=O)N[C@H](C(=O)N[C@H](C(=O)N[C@@H](CCCCN)C(=O)N[C@H](C(=O)N[C@H](C(=O)N[C@@H](CCCCN)C(=O)N[C@@H](CCCN=C(N)N)C(N)=O)[C@@H](C)CC)[C@@H](C)CC)[C@@H](C)CC)[C@@H](C)CC` [GIRRGIIKIIKR]: the minimum inhibitory concentration (MIC) in [5] is not below 32 µM; in assay [3], 128 µM (≈ 182 µg/mL).
`CC(C)C[C@H](NC(=O)CN)C(=O)N[C@@H](CC(C)C)C(=O)N[C@@H](CCCCN)C(=O)N[C@@H](CCCN=C(N)N)C(=O)N[C@@H](CC(C)C)C(=O)N[C@@H](CCCCN)C(=O)N[C@H](C(=O)N[C@@H](CC(C)C)C(=O)N[C@@H](C)C(N)=O)[C@@H](C)O` [GLLKRLKTLA]: the MIC in assay [6] is 64 µM (≈ 71.1 µg/mL); in assay [5], not below 32 µM; in [1], 256 µM (≈ 285 µg/mL); in assay [2] it was 256 µM (≈ 285 µg/mL); in [3] it was 256 µM (≈ 285 µg/mL); in assay [7], 64 µM (≈ 71.1 µg/mL). In addition, the MIC in assay [8] and in assay [9] was more than 512 µM throughout.
Take `C[C@@H](O)[C@H](NC(=O)[C@H](CCCCN)NC(=O)[C@H](Cc1c[nH]c2ccccc12)NC(=O)[C@H](CCCN=C(N)N)NC(=O)[C@H](CCCCN)NC(=O)[C@H](Cc1c[nH]c2ccccc12)NC(=O)[C@H](Cc1c[nH]c2ccccc12)NC(=O)CN)C(=O)N[C@@H](Cc1c[nH]c2ccccc12)C(=O)N[C@@H](Cc1c[nH]c2ccccc12)C(N)=O` [GWWKRWKTWW]: the minimum inhibitory concentration (MIC) in assay [6] amounted to 8 µM (≈ 12.2 µg/mL); in assay [5], 4 µM (≈ 6.08 µg/mL); in assay [1] it was 16 µM (≈ 24.3 µg/mL); in assay [2], 8 µM (≈ 12.2 µg/mL); in assay [3], 16 µM (≈ 24.3 µg/mL); in [7], 4 µM (≈ 6.08 µg/mL). For the same compound, the MIC in [8] and in [9] was 16 µM (≈ 24.3 µg/mL) throughout.
Regarding `CC[C@H](C)[C@H](N)C(=O)N[C@@H](CC(N)=O)C(=O)N[C@@H](CC(C)C)C(=O)N[C@@H](CCCCN)C(=O)N[C@H](C(=O)N[C@@H](CC(C)C)C(=O)N[C@@H](C)C(=O)N[C@@H](CCCN=C(N)N)C(=O)N[C@@H](CC(C)C)C(=O)N[C@@H](C)C(=O)N[C@@H](CCCCN)C(=O)N[C@@H](CCCCN)C(=O)N[C@H](C(=O)N[C@@H](CC(C)C)C(N)=O)[C@@H](C)CC)[C@@H](C)CC` [INLKILARLAKKIL], the MIC against Staphylococcus aureus came to 3 µM (≈ 4.82 µg/mL); in assay [10], 3 µM (≈ 4.82 µg/mL); in [2], 6.25 µM (≈ 10 µg/mL); against Klebsiella pneumoniae, 3 µM (≈ 4.82 µg/mL).
In the case of `CC[C@H](C)[C@H](NC(=O)[C@H](CCCCN)NC(=O)[C@H](CCCCN)NC(=O)[C@H](C)NC(=O)[C@@H](NC(=O)[C@H](C)NC(=O)[C@H](CC(C)C)NC(=O)[C@H](CC(C)C)NC(=O)[C@H](CCCCN)NC(=O)[C@H](CCCCN)NC(=O)[C@H](CC(C)C)NC(=O)[C@H](CC(N)=O)NC(=O)[C@@H](N)CC(C)C)C(C)C)C(N)=O` [LNLKKLLAVAKKI], the minimal inhibitory concentration (MIC) was determined as 8 µM (≈ 11.6 µg/mL) in assay [5]; 64 µM (≈ 92.9 µg/mL) in assay [1]; 128 µM (≈ 186 µg/mL) in assay [2]; 16 µM (≈ 23.2 µg/mL) in assay [3]; 16 µM (≈ 23.2 µg/mL) in [4].
